Laboratory results: patent US9765058B2, “Substituted benzylpyrazoles” (BAYER PHARMA AKTIENGESELLSCHAFT, priority 2013, dated 2017)
Like-named read-outs stand apart in the source and are kept apart here.

How the values were obtained:
[1] = biological target: catalytic domain of human Bub1 (amino acids 704-1085) (Homo sapiens (Human), UniProt O43683); test: Bub1 kinase assay (TR-FRET); type: biochemical; settings: read-out: Biological Assay 1: Bub1 kinase assay median IC50
Method: The stopped reaction mixture was further incubated 1 h at 22° C. in order to allow the formation of complexes between peptides and detection reagents. Subsequently, the amount of product was evaluated by measurement of the resonance energy transfer from the Eu-chelate-antibody complex recognizing the Phosphoserine residue to the streptavidin-XL665 bound to the biotin moiety of the peptide. […] IC50 values were calculated by fitting the normalized inhibition data to a 4-parameter logistic equation (Minimum, Maximum, IC50, Hill; Y=Max+(Min−Max)/(1+(X/IC50)Hill)).

[2] = test system: HeLa cell line; test: Proliferation assay (crystal violet); settings: Homo sapiens, 96 h, read-out: Biological Assay 2: Proliferation assay (HeLa cell line) median IC50
Method: Cultivated tumor cells (cells were ordered from ATCC, except HeLa-MaTu and HeLa-MaTu-ADR, which were ordered from EPO-GmbH, Berlin) were plated at a density of 1000 to 5000 cells/well, depending on the growth rate of the respective cell line, in a 96-well multititer plate in 200 μL of their respective growth medium supplemented 10% fetal calf serum. After 24 hours, the cells of one plate (zero-point plate) were stained with crystal violet (see below), while the medium of the other plates was replaced by fresh culture medium (200 μL), to which the test substances were added in various concentrations (0 μM, as well as in the range of 0.001-10 μM; the final concentration of the solvent dimethyl sulfoxide was 0.5%). The cells were incubated for 4 days in the presence of test substances. Cell proliferation was determined by staining the cells with crystal violet: the cells were fixed by adding 20 μL/measuring point of an 11% glutaric aldehyde solution for 15 minutes at room temperature. After three washing cycles of the fixed cells with water, the plates were dried at room temperature. The cells were stained by adding 100 μL/measuring point of a 0.1% crystal violet solution (pH 3.0). After three washing cycles of the stained cells with water, the plates were dried at room temperature. The dye was dissolved by adding 100 μl/measuring point of a 10% acetic acid solution. Absorbtion was determined by photometry at a wavelength of 595 nm. The change of cell number, in percent, was calculated by normalization of the measured values to the absorbtion values of the zero-point plate (=0%) and the absorbtion of the untreated (0 μm) cells (=100%). The IC50 values were determined by means of a 4 parameter fit.

[3] = TR-FRET, 10 μM ATP, 1 μM peptide substrate

## CCOC(=O)c1cnccc1Nc1ccnc(-c2nn(Cc3c(F)cc(OCC)cc3F)c(C3CC3)c2Cl)n1 [Example 2-2-2, ethyl 4-({2-[4-chloro-5-cyclopropyl-1-(4-ethoxy-2,6-difluorobenzyl)-1H-pyrazol-3-yl]pyrimidin-4-yl}amino)nicotinate]
[1]; [3]
  IC50: 37 nM
[2]
  IC50: 9200 nM

## CCOc1cc(F)c(Cn2nc(-c3ncc(OC)c(Nc4ccncc4)n3)c(C#N)c2C)c(F)c1 [Example 2-2-8, 1-(4-ethoxy-2,6-difluorobenzyl)-3-[5-methoxy-4-(pyridin-4-ylamino)pyrimidin-2-yl]-5-methyl-1H-pyrazole-4-carbonitrile]
[1]; [3]
  IC50: 3200 nM

## CCOc1cc(F)c(Cn2nc(-c3ncc(OC)c(Nc4ccncc4)n3)c(C)c2Br)c(F)c1 [Example 2-2-11, 2-[5-bromo-1-(4-ethoxy-2,6-difluorobenzyl)-4-methyl-1H-pyrazol-3-yl]-5-methoxy-N-(pyridin-4-yl)pyrimidin-4-amine]
[1]; [3]
  IC50: 13 nM
[2]
  IC50: 1300 nM

## CCOc1cc(F)c(Cn2nc(-c3ncc(OC)c(Nc4ccncc4)n3)c(F)c2C)c(F)c1 [Example 2-2-6, 2-[1-(4-ethoxy-2,6-difluorobenzyl)-4-fluoro-5-methyl-1H-pyrazol-3-yl]-5-methoxy-N-(pyridin-4-yl)pyrimidin-4-amine]
[1]; [3]
  IC50: 41 nM
[2]
  IC50: 4500 nM

## CCOc1cc(F)c(Cn2cc(Cl)c(-c3ncc(OC)c(Nc4ccncc4C(N)=O)n3)n2)c(F)c1 [Example 2-4-3, 4-({2-[4-chloro-1-(4-ethoxy-2,6-difluorobenzyl)-1H-pyrazol-3-yl]-5-methoxypyrimidin-4-yl}amino)nicotinamide]
[1]; [3]
  IC50: 7.4 nM
[2]
  IC50: > 10000 nM

## CCOc1cc(F)c(Cn2nc(-c3nccc(Nc4ccncc4C(=O)NC)n3)c(Cl)c2C2CC2)c(F)c1 [Example 2-1-1, 4-({2-[4-chloro-5-cyclopropyl-1-(4-ethoxy-2,6-difluorobenzyl)-1H-pyrazol-3-yl]pyrimidin-4-yl}amino)-N-methylnicotinamide]
[1]; [3]
  IC50: 4.7 nM
[2]
  IC50: > 10000 nM

## CCOc1cc(F)c(Cn2nc(-c3nccc(Nc4ccncc4C(=O)O)n3)c(Cl)c2C2CC2)c(F)c1 [Example 2-3-1, 4-({2-[4-chloro-5-cyclopropyl-1-(4-ethoxy-2,6-difluorobenzyl)-1H-pyrazol-3-yl]pyrimidin-4-yl}amino)nicotinic acid]
[1]
  IC50: 11 nM

## CCOc1cc(F)c(Cn2cc(Cl)c(-c3ncc(OC)c(Nc4ccncc4)n3)n2)c(F)c1 [Example 2-2-5, 2-[4-chloro-1-(4-ethoxy-2,6-difluorobenzyl)-1H-pyrazol-3-yl]-5-methoxy-N-(pyridin-4-yl)pyrimidin-4-amine]
[1]; [3]
  IC50: 33 nM
[2]
  IC50: 6800 nM

## CCOc1cc(F)c(Cn2nc(-c3nccc(Nc4ccncc4C(N)=O)n3)c(Cl)c2C2CC2)c(F)c1 [Example 2-1-2, 4-({2-[4-chloro-5-cyclopropyl-1-(4-ethoxy-2,6-difluorobenzyl)-1H-pyrazol-3-yl]pyrimidin-4-yl}amino)nicotinamide]
[1]; [3]
  IC50: 8.1 nM
[2]
  IC50: 8600 nM

## CCOc1cc(F)c(Cn2cc(N(C)C)c(-c3ncc(OC)c(Nc4ccncc4)n3)n2)c(F)c1 [Example 2-2-10, 2-[4-(dimethylamino)-1-(4-ethoxy-2,6-difluorobenzyl)-1H-pyrazol-3-yl]-5-methoxy-N-(pyridin-4-yl)pyrimidin-4-amine]
[1]; [3]
  IC50: 250 nM
[2]
  IC50: > 10000 nM

## CCOc1cc(F)c(Cn2nc(-c3ncc(OC)c(Nc4ccncc4)n3)c(Br)c2C)c(F)c1 [Example 2-2-4, 2-[4-bromo-1-(4-ethoxy-2,6-difluorobenzyl)-5-methyl-1H-pyrazol-3-yl]-5-methoxy-N-(pyridin-4-yl)pyrimidin-4-amine]
[1]; [3]
  IC50: 24 nM
[2]
  IC50: 3300 nM

## CCOc1cc(F)c(Cn2nc(-c3ncc(OC)c(Nc4ccncc4)n3)c(Cl)c2C)c(F)c1 [Example 2-2-3, 2-[4-chloro-1-(4-ethoxy-2,6-difluorobenzyl)-5-methyl-1H-pyrazol-3-yl]-5-methoxy-N-(pyridin-4-yl)pyrimidin-4-amine]
[1]; [3]
  IC50: 10 nM
[2]
  IC50: 3800 nM

## CCOc1cc(F)c(Cn2nc(-c3ncc(OC)c(Nc4ccncc4C(=O)NC)n3)c(F)c2C)c(F)c1 [Example 2-4-4, 4-({2-[1-(4-ethoxy-2,6-difluorobenzyl)-4-fluoro-5-methyl-1H-pyrazol-3-yl]-5-methoxypyrimidin-4-yl}amino)-N-methylnicotinamide]
[1]; [3]
  IC50: 10 nM
[2]
  IC50: > 10000 nM

## CCOc1cc(F)c(Cn2nc(-c3ncc(OC)c(Nc4ccncc4C(N)=O)n3)c(F)c2C)c(F)c1 [Example 2-4-5, 4-({2-[1-(4-ethoxy-2,6-difluorobenzyl)-4-fluoro-5-methyl-1H-pyrazol-3-yl]-5-methoxypyrimidin-4-yl}amino)pyridine-3-carboxamide]
[1]; [3]
  IC50: 11 nM
[2]
  IC50: > 10000 nM

## CCOc1cc(F)c(Cn2cc(Cl)c(-c3ncc(OC)c(Nc4ccncc4C(=O)NC)n3)n2)c(F)c1 [Example 2-4-2, 4-({2-[4-chloro-1-(4-ethoxy-2,6-difluorobenzyl)-1H-pyrazol-3-yl]-5-methoxypyrimidin-4-yl}amino)-N-methylnicotinamide]
[1]; [3]
  IC50: 13 nM
[2]
  IC50: > 10000 nM

## CCOC(=O)c1cnccc1Nc1nc(-c2nn(Cc3c(F)cc(OCC)cc3F)c(C)c2F)ncc1OC [Example 2-2-9, ethyl 4-({2-[1-(4-ethoxy-2,6-difluorobenzyl)-4-fluoro-5-methyl-1H-pyrazol-3-yl]-5-methoxypyrimidin-4-yl}amino)nicotinate]
[1]; [3]
  IC50: 40 nM

## CCOc1cc(F)c(Cn2nc(-c3nccc(Nc4ccncc4)n3)c(Cl)c2C2CC2)c(F)c1 [Example 2-2-1, 2-[4-chloro-5-cyclopropyl-1-(4-ethoxy-2,6-difluorobenzyl)-1H-pyrazol-3-yl]-N-(pyridin-4-yl)pyrimidin-4-amine]
[1]
  IC50: 5.6 nM
[2]
  IC50: 8800 nM

## CCOc1cc(F)c(Cn2nc(-c3nccc(Nc4ccncc4C(=O)NCCO)n3)c(Cl)c2C2CC2)c(F)c1 [Example 2-4-1, 4-({2-[4-chloro-5-cyclopropyl-1-(4-ethoxy-2,6-difluorobenzyl)-1H-pyrazol-3-yl]pyrimidin-4-yl}amino)-N-(2-hydroxyethyl)nicotinamide]
[1]
  IC50: 54 nM
[2]
  IC50: > 10000 nM

## CCOc1cc(F)c(Cn2nc(-c3ncc(OC)c(Nc4ccncc4)n3)c(C)c2C#N)c(F)c1 [Example 2-2-12, 1-(4-ethoxy-2,6-difluorobenzyl)-3-[5-methoxy-4-(pyridin-4-ylamino)pyrimidin-2-yl]-4-methyl-1H-pyrazole-5-carbonitrile]
[1]; [3]
  IC50: 100 nM
[2]
  IC50: > 10000 nM
